Test results published in ChEMBL document CHEMBL1201862, “PubChem BioAssay data set” (2004).
Active and inactive are the calls of the source.

How the values were obtained:
Large T antigen = Large T antigen (Simian virus 40, UniProt P03070); type: functional, Betapolyomavirus macacae;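 note: Confirmatory-stage PubChem screen for compounds that inhibit SV40 T antigen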
[1] = molecular target: T1, Sentrin-specific protease 7 (Homo sapiens, UniProt Q9BQF6); test: SENP7 protease inhibitors, SAR follow-up, biochemical, luminescence (AID 504497); type: functional
T1 sequence (Q9BQF6 whole entry): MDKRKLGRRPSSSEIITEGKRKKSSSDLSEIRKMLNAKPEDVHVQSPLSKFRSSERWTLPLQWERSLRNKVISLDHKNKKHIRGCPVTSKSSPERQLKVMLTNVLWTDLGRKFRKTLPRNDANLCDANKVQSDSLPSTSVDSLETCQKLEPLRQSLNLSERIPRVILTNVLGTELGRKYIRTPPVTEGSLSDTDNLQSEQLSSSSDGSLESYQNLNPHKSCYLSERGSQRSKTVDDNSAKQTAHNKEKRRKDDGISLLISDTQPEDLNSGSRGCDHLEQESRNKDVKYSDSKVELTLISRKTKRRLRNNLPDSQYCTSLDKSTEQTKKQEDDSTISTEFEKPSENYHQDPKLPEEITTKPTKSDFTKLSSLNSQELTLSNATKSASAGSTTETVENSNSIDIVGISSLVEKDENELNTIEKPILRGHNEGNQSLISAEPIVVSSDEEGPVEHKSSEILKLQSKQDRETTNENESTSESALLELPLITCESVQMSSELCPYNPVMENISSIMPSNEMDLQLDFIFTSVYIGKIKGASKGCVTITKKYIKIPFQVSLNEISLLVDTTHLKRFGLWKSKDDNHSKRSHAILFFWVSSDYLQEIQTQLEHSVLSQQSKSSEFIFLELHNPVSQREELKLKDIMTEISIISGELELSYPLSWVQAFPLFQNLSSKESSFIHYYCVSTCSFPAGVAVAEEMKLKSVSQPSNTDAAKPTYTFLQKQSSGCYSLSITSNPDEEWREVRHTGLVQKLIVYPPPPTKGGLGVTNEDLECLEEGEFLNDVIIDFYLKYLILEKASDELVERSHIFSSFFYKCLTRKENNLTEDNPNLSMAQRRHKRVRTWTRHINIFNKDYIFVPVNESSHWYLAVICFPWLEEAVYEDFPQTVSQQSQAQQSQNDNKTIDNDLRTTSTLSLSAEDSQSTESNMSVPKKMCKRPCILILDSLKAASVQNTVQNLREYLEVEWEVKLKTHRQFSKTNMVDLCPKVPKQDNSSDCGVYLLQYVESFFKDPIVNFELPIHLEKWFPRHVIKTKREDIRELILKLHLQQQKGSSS

[2] = molecular target: Mitogen-activated protein kinase kinase kinase 20 (Homo sapiens, UniProt Q9NYL2); type: functional
Sequence of Mitogen-activated protein kinase kinase kinase 20 (Q9NYL2 whole entry): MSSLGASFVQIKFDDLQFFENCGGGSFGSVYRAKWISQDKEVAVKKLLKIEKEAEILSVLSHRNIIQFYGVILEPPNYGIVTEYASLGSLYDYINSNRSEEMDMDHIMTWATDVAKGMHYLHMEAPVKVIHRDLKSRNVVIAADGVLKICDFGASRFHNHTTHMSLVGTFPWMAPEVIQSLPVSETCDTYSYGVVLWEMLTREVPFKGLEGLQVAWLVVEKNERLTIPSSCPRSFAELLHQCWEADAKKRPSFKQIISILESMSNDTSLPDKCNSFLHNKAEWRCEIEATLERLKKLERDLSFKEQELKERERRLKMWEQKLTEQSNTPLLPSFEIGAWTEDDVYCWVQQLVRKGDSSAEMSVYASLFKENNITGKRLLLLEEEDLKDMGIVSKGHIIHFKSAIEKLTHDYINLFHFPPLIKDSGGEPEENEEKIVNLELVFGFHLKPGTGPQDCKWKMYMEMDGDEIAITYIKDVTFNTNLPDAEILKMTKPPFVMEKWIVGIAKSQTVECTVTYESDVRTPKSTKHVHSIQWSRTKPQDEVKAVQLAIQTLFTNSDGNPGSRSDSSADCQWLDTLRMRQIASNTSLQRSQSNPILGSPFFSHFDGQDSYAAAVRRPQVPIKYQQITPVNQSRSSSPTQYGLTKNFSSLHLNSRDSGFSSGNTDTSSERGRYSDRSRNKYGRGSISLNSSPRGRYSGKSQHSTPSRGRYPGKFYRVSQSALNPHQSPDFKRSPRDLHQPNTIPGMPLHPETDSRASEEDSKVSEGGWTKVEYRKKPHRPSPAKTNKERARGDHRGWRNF

[3] = molecular target: Testis-specific serine/threonine-protein kinase 1 (Homo sapiens, UniProt Q9BXA7); type: functional
Sequence of Testis-specific serine/threonine-protein kinase 1 (Q9BXA7 whole entry): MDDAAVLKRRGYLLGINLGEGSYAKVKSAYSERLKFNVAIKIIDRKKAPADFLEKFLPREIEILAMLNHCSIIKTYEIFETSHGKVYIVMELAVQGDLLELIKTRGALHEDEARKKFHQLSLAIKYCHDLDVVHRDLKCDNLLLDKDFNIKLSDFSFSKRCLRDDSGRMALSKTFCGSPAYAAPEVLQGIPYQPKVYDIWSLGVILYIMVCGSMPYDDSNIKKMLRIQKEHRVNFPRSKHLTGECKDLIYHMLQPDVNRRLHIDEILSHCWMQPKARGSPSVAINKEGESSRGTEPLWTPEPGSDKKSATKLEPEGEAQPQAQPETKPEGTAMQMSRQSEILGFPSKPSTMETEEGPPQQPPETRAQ

[4] = molecular target: Tyrosine-protein kinase receptor TYRO3 (Homo sapiens, UniProt Q06418); type: functional;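 note: TYRO3 value obtained as one member of a kinome-wide profiling panel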
[5] = molecular target: Macrophage colony-stimulating factor 1 receptor (Homo sapiens, UniProt P07333); type: functional;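 note: value comes from the Navigating the Kinome screening panel, CSF1R member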
Sequence of Macrophage colony-stimulating factor 1 receptor (P07333 whole entry): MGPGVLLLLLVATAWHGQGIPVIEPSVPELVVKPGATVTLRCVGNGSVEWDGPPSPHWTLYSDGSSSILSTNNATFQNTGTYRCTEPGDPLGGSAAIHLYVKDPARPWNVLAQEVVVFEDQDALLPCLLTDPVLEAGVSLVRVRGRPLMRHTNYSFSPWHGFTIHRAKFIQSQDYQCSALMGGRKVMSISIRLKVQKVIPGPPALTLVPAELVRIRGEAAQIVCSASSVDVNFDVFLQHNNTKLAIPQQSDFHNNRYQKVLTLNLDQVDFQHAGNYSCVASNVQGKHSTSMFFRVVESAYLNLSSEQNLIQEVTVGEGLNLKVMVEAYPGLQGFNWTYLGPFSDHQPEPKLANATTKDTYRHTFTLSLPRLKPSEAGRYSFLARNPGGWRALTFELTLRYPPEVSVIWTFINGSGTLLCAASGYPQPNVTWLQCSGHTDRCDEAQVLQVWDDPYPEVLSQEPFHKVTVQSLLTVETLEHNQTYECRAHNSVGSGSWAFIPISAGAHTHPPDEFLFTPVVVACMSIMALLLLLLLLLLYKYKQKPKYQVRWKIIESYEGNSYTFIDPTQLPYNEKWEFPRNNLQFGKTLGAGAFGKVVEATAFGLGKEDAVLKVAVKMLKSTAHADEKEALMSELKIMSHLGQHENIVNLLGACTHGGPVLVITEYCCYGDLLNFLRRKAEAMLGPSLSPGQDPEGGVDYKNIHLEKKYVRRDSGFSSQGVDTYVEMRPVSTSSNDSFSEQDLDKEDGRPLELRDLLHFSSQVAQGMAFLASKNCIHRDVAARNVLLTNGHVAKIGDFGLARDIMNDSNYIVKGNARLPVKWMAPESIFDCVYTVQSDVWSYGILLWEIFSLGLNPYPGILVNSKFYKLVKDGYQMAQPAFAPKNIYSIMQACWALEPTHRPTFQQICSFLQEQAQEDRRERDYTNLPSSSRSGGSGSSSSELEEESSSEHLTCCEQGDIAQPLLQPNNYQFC

[6] = molecular target: Ribosomal protein S6 kinase beta-1 (Homo sapiens, UniProt P23443); type: functional;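 note: measured as one member of a kinome-wide profiling panel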
[7] = molecular target: MAP kinase-activated protein kinase 3 (Homo sapiens, UniProt Q16644); type: functional;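 note: value comes from a kinome-wide profiling panel in which MAPKAPK3 is one of the panel members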
Sequence of MAP kinase-activated protein kinase 3 (Q16644 whole entry): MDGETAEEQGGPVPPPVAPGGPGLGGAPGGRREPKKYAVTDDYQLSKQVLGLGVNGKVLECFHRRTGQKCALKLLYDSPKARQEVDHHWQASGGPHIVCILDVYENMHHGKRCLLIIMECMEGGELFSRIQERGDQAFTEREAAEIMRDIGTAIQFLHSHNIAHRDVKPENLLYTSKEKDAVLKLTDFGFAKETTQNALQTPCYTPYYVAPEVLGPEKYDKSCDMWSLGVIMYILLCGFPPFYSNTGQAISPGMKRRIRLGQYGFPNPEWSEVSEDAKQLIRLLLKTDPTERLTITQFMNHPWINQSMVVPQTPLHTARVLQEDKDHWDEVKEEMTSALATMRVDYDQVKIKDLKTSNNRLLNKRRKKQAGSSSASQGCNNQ

[8] = molecular target: ALK tyrosine kinase receptor (Homo sapiens, UniProt Q9UM73); type: functional;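 note: ALK tested as one member of a kinase panel screen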
Sequence of ALK tyrosine kinase receptor (Q9UM73 whole entry): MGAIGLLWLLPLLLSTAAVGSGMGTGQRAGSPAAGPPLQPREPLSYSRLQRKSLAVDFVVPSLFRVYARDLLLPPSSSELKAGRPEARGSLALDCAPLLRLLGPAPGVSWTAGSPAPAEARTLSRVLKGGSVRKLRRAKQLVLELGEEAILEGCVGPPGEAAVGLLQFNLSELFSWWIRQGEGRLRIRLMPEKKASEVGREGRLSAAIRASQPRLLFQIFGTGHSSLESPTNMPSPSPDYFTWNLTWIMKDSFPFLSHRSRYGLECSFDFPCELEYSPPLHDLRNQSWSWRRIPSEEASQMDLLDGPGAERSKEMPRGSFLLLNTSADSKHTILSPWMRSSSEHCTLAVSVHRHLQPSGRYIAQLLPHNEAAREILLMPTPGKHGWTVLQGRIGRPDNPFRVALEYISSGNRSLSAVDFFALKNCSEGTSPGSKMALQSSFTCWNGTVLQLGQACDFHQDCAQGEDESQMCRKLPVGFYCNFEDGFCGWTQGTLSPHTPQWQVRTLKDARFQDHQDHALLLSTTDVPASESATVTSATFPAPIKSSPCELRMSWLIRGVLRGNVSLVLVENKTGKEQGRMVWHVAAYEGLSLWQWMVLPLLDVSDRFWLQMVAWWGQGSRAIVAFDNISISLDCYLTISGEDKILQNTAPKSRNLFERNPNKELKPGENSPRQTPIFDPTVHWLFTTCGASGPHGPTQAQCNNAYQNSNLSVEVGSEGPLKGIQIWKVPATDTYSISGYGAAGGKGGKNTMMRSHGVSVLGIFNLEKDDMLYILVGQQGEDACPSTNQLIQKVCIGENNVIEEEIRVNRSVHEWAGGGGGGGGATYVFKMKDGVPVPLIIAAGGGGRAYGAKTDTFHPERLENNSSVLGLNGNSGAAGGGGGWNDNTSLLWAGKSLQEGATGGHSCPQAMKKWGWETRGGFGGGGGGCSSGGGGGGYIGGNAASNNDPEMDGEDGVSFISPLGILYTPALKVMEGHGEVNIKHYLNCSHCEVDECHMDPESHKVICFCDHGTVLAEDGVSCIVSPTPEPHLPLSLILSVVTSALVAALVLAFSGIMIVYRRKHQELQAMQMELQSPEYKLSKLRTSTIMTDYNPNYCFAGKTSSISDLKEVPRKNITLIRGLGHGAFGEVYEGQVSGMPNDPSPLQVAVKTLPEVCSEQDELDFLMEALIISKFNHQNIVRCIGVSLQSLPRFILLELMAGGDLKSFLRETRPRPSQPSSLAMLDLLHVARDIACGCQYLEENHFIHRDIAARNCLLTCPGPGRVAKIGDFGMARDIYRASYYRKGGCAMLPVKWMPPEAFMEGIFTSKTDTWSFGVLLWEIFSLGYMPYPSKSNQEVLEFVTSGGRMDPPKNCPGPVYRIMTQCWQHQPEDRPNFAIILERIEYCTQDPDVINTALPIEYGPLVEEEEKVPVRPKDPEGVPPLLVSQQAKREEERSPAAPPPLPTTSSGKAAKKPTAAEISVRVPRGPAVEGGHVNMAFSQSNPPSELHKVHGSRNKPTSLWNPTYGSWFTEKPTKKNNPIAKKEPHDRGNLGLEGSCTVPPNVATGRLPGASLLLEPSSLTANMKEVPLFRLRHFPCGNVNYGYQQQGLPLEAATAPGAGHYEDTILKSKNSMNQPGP

[9] = molecular target: Serine/threonine-protein kinase PAK 1 (Homo sapiens, UniProt Q13153); type: functional
[10] = molecular target: T2, Oxysterols receptor LXR-beta (Homo sapiens, UniProt P55055); type: functional, cell-based;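 note: Cell-based luminescence dose-response assay of agonist activity at LXR, run as a confirmatory counterscreen to a daf-12 agonist screen; HEK293 cells with Gal4-LXR fusion and GAL4-driven luciferase reporter; agonist potency from rising luciferase signal of a Gal4-LXR reporter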
T2 sequence (P55055 whole entry): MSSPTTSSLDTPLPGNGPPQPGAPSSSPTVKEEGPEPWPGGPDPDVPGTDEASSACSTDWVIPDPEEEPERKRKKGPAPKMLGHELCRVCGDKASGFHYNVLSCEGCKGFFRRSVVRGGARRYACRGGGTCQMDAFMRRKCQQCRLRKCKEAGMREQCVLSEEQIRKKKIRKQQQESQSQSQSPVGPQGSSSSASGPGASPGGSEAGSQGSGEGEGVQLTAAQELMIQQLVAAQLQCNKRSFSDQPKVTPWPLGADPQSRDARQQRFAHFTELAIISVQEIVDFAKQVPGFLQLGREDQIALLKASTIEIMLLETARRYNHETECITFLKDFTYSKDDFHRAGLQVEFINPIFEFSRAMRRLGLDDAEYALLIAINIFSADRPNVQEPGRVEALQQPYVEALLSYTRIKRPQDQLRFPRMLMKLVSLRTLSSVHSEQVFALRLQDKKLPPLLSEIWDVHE

Hexokinase-1 = molecular target: T3, Hexokinase-1 (Homo sapiens, UniProt P19367); test: HK1 enzyme inhibition by HKDC1 hits, SAR follow-up, selectivity assay for HKDC1 inhibitor project, biochemical, set 2, resazurin fluorescence coupled readout (AID 588356); type: functional
T3 sequence (P19367 whole entry): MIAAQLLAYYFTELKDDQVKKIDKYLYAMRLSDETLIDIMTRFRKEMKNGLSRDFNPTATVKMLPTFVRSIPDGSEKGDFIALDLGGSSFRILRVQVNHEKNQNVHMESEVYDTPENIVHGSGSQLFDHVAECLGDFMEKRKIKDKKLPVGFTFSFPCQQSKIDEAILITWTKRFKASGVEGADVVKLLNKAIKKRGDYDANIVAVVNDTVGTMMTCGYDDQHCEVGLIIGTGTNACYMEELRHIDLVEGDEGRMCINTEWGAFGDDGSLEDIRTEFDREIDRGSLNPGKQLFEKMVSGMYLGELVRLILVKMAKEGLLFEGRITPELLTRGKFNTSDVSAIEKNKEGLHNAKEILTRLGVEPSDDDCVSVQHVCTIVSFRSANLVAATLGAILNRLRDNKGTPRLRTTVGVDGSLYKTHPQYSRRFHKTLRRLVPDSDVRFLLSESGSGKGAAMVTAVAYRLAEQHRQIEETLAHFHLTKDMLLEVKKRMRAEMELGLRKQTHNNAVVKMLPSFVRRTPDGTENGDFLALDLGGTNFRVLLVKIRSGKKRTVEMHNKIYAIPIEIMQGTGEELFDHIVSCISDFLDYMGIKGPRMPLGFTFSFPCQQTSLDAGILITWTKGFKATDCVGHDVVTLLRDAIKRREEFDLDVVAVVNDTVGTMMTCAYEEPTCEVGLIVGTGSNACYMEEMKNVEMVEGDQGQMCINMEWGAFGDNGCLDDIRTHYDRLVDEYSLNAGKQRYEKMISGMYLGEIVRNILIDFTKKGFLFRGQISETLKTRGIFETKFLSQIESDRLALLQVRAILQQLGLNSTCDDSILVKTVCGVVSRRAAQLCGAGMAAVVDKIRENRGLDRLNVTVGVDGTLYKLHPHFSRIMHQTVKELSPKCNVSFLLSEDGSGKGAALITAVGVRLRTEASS

Sequence of Large T antigen (P03070 whole entry): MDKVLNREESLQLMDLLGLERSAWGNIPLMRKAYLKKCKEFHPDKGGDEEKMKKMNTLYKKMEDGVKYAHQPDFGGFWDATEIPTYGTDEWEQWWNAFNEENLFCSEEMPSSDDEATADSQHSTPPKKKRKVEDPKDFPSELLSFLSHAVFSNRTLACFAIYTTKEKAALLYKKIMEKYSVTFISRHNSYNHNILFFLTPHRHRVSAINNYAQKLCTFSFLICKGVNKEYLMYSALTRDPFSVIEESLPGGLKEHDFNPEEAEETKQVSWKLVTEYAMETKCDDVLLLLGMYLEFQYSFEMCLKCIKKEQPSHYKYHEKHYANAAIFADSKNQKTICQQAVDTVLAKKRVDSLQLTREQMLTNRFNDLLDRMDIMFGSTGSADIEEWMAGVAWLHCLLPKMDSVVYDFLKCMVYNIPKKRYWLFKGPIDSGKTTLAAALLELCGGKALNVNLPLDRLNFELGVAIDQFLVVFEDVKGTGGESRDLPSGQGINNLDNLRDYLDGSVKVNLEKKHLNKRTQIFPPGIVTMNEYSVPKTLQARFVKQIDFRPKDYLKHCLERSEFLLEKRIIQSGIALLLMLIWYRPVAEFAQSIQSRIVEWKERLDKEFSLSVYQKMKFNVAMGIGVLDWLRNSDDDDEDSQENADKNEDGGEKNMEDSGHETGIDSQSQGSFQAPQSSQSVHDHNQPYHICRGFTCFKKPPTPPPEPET

O=C(O)C1Nc2c(O)cc(Cl)c([N+](=O)[O-])c2C2C=CCC12 (configuration not stated)
IC50 (Large T antigen): 9.86 µM (active)

O=C(CCc1ccccc1)NNc1cc(N2CCCCC2)nc(N2CCCCC2)n1
IC50 [1]: 57.9 µM (active)

Cc1n[nH]c2ccc(-c3cncc(OCC(N)Cc4cccc(Cl)c4)c3)cc12 (configuration not stated)
Ki [2]: 7.94 µM (active) | Ki [3]: 0.1 µM (active) | Ki [4]: > 2 µM (inactive) | Ki [5]: > 2.51 µM (inactive) | Ki [6]: 0.0794 µM (active) | Ki [7]: > 10 µM (inactive) | Ki [8]: > 1.26 µM (inactive) | Ki [9]: 0.631 µM (active)

Clc1ccc2nc(-c3ccc(Br)s3)cn2c1
EC50 [10]: > 67.5 µM (inactive)

CC(=O)NC1C(=O)N(CCN2CCOCC2)c2ccc(F)cc21 (configuration not stated)
IC50 (Hexokinase-1): > 80 µM (inactive)
